These compounds were tested against GCN2 (Homo sapiens (Human), UniProt Q9P2K8) (assay: GCN2 Biochemical Assay (TR-FRET, GFP-eIF2S1 substrate phosphorylation)). Conditions: read-out: IC50 (GCN2 Inhibitory Activity).
In short: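 TR-FRET readout (Ex 340, Em 490/520 nm) after 2–3 h with Tb-labelled phospho-eIF2S1 antibody in stop mix, following a 70 min room-temperature kinase step. Reaction: in-house GCN2, GFP-eIF2S1, ATP, tRNA in Tris pH 7.5 (2× stocks 1.6 nM, 50 nM, 0.2 mM); compounds tested at 10 concentrations, with a phospho-substrate artifact counter-plate.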

Sequence of GCN2 (Q9P2K8 whole entry): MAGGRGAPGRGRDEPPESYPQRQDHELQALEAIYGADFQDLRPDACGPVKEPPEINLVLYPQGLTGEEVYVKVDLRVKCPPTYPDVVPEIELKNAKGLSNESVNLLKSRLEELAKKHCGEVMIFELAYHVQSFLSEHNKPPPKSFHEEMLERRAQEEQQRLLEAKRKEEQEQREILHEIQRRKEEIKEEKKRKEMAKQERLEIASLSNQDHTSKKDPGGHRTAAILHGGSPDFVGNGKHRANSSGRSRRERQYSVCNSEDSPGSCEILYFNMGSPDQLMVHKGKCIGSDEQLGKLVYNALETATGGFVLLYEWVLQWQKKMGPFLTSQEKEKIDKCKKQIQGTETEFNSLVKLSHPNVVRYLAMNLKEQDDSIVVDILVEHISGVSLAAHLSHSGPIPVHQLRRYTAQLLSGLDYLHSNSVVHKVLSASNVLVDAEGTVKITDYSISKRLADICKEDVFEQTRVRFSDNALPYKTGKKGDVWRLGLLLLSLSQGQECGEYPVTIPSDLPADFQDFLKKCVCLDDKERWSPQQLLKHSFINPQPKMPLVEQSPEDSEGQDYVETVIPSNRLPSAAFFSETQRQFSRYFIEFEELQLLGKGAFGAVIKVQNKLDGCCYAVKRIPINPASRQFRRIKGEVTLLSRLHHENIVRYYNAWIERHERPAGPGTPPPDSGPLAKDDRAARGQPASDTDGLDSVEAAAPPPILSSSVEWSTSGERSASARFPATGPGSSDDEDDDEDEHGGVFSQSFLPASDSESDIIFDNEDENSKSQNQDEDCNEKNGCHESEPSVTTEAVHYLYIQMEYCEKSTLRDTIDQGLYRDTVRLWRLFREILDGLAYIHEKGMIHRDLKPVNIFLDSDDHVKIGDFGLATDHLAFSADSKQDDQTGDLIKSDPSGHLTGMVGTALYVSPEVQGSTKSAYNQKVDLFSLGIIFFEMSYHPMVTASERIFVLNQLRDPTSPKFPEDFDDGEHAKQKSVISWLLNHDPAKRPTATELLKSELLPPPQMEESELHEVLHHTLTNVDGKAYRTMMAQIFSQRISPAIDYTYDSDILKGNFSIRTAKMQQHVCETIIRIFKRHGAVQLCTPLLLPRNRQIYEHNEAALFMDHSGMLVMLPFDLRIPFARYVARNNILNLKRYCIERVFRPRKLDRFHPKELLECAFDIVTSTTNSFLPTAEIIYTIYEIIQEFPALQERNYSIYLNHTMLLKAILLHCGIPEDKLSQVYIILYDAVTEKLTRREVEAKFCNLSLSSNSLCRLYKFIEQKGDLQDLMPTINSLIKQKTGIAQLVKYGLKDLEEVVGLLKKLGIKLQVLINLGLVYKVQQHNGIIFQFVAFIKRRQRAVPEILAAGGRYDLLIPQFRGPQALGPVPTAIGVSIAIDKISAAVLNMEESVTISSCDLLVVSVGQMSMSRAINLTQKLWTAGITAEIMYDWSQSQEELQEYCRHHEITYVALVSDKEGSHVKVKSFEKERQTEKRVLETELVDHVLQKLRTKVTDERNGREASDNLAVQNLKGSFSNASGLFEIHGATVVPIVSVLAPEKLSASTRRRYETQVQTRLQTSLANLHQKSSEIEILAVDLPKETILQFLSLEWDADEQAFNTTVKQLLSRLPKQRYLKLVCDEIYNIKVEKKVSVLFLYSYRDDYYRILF

With Cc1cnc(Nc2cc(C)n(C)n2)nc1-c1c[nH]c2c(N3Cc4c(NC(=O)[C@@H]5CCC(=O)N5)cccc4C3=O)cccc12 [Example 317, (S)-N-(2-(3-(2-((1,5-dimethyl-1H-pyrazol-3-yl)amino)-5-methylpyrimidin-4-yl)-1H-indol-7-yl)-1-oxoisoindolin-4-yl)-5-oxopyrrolidine-2-carboxamide] as the compound, how does the IC50 read?
Its IC50 is under 10 nM.

Cc1cnc(Nc2cc(C)n(C)n2)nc1-c1c[nH]c2c(N3Cc4c(NC(=O)[C@H]5CCC(=O)N5)cccc4C3=O)cccc12 [Example 318, (R)-N-(2-(3-(2-((1,5-dimethyl-1H-pyrazol-3-yl)amino)-5-methylpyrimidin-4-yl)-1H-indol-7-yl)-1-oxoisoindolin-4-yl)-5-oxopyrrolidine-2-carboxamide] was tested. Which IC50 did it give?
The IC50 was under 10 nM.

For Cc1cnc(Nc2cc(C)n(C)n2)nc1-c1c[nH]c2c(N3Cc4c(NC(=O)C5CCCNC5)cccc4C3=O)cccc12 (stereo not shown) [Example 319, N-(2-(3-(2-((1,5-dimethyl-1H-pyrazol-3-yl)amino)-5-methylpyrimidin-4-yl)-1H-indol-7-yl)-1-oxoisoindolin-4-yl)piperidine-3-carboxamide], which IC50 is on record?
The IC50 was under 10 nM.

Which IC50 does the source give for Cc1cnc(Nc2cc(C)n(C)n2)nc1-c1c[nH]c2c(N3Cc4c(NC(=O)C5CCC(=O)CC5)cccc4C3=O)cccc12 [Example 320, N-(2-(3-(2-((1,5-dimethyl-1H-pyrazol-3-yl)amino)-5-methylpyrimidin-4-yl)-1H-indol-7-yl)-1-oxoisoindolin-4-yl)-4-oxocyclohexane-1-carboxamide] here?
The IC50 was under 10 nM.

For Cc1cnc(Nc2cc(C)n(C)n2)nc1-c1c[nH]c2c(N3Cc4c(NC(=O)c5cnoc5C)cccc4C3=O)cccc12 [Example 321, N-(2-(3-(2-((1,5-dimethyl-1H-pyrazol-3-yl)amino)-5-methylpyrimidin-4-yl)-1H-indol-7-yl)-1-oxoisoindolin-4-yl)-5-methylisoxazole-4-carboxamide], which IC50 is on record?
Its IC50 is under 10 nM.

Cc1nc(C(=O)Nc2cccc3c2CN(c2cccc4c(-c5nc(Nc6cc(C)n(C)n6)ncc5C)c[nH]c24)C3=O)co1 [Example 322, N-(2-(3-(2-((1,5-dimethyl-1H-pyrazol-3-yl)amino)-5-methylpyrimidin-4-yl)-1H-indol-7-yl)-1-oxoisoindolin-4-yl)-2-methyloxazole-4-carboxamide] was tested. Which IC50 did it give?
Its IC50 is under 10 nM.

With Cc1cnc(Nc2cc(C)n(C)n2)nc1-c1c[nH]c2c(N3Cc4c(NC(=O)c5cnco5)cccc4C3=O)cccc12 [Example 323, N-(2-(3-(2-((1,5-dimethyl-1H-pyrazol-3-yl)amino)-5-methylpyrimidin-4-yl)-1H-indol-7-yl)-1-oxoisoindolin-4-yl)oxazole-5-carboxamide] as the compound, how does the IC50 read?
The IC50 was under 10 nM.

With Cc1cnc(Nc2cc(C)n(C)n2)nc1-c1c[nH]c2c(N3Cc4c(NC(=O)c5ccon5)cccc4C3=O)cccc12 [Example 324, N-(2-(3-(2-((1,5-dimethyl-1H-pyrazol-3-yl)amino)-5-methylpyrimidin-4-yl)-1H-indol-7-yl)-1-oxoisoindolin-4-yl)isoxazole-3-carboxamide] as the compound, how does the IC50 read?
Its IC50 is 10 to 100 nM.

With Cc1cc(C(=O)Nc2cccc3c2CN(c2cccc4c(-c5nc(Nc6cc(C)n(C)n6)ncc5C)c[nH]c24)C3=O)no1 [Example 325, N-(2-(3-(2-((1,5-dimethyl-1H-pyrazol-3-yl)amino)-5-methylpyrimidin-4-yl)-1H-indol-7-yl)-1-oxoisoindolin-4-yl)-5-methylisoxazole-3-carboxamide] as the compound, how does the IC50 read?
Its IC50 is 10 to 100 nM.

How did the IC50 turn out when Cc1cnc(Nc2cc(C)n(C)n2)nc1-c1c[nH]c2c(N3Cc4c(NC(=O)C5CCOC5)cccc4C3=O)cccc12 (stereo not shown) [Example 326, N-(2-(3-(2-((1,5-dimethyl-1H-pyrazol-3-yl)amino)-5-methylpyrimidin-4-yl)-1H-indol-7-yl)-1-oxoisoindolin-4-yl)tetrahydrofuran-3-carboxamide] was run?
Its IC50 is under 10 nM.

With Cc1cnc(Nc2cc(C)n(C)n2)nc1-c1c[nH]c2c(N3Cc4c(NC(=O)C5CCCOC5)cccc4C3=O)cccc12 (stereo not shown) [Example 327, N-(2-(3-(2-((1,5-dimethyl-1H-pyrazol-3-yl)amino)-5-methylpyrimidin-4-yl)-1H-indol-7-yl)-1-oxoisoindolin-4-yl)tetrahydro-2H-pyran-3-carboxamide] as the compound, how does the IC50 read?
The IC50 was under 10 nM.

For Cc1cnc(Nc2cc(C)n(C)n2)nc1-c1c[nH]c2c(N3Cc4c(NC(=O)C5(C)CCOCC5)cccc4C3=O)cccc12 [Example 328, N-(2-(3-(2-((1,5-dimethyl-1H-pyrazol-3-yl)amino)-5-methylpyrimidin-4-yl)-1H-indol-7-yl)-1-oxoisoindolin-4-yl)-4-methyltetrahydro-2H-pyran-4-carboxamide], which IC50 is on record?
Its IC50 is under 10 nM.

Cc1cnc(Nc2cc(C)n(C)n2)nc1-c1c[nH]c2c(N3Cc4c(NC(=O)C5CCCC(C)C5)cccc4C3=O)cccc12 (stereo not shown) [Example 329, N-(2-(3-(2-((1,5-dimethyl-1H-pyrazol-3-yl)amino)-5-methylpyrimidin-4-yl)-1H-indol-7-yl)-1-oxoisoindolin-4-yl)-3-methylcyclohexane-1-carboxamide] was tested. Which IC50 did it give?
Its IC50 is 100 to 1000 nM.

With CC1=CCC(C(=O)Nc2cccc3c2CN(c2cccc4c(-c5nc(Nc6cc(C)n(C)n6)ncc5C)c[nH]c24)C3=O)CC1 (stereo not shown) [Example 330, N-(2-(3-(2-((1,5-dimethyl-1H-pyrazol-3-yl)amino)-5-methylpyrimidin-4-yl)-1H-indol-7-yl)-1-oxoisoindolin-4-yl)-4-methylcyclohex-3-ene-1-carboxamide] as the compound, how does the IC50 read?
Its IC50 is 10 to 100 nM.

For Cc1cnc(Nc2cc(C)n(C)n2)nc1-c1c[nH]c2c(N3Cc4c(NC(=O)[C@H]5C[C@H](N)CN5)cccc4C3=O)cccc12 [Example 331, (2R,4S)-4-amino-N-(2-(3-(2-((1,5-dimethyl-1H-pyrazol-3-yl)amino)-5-methylpyrimidin-4-yl)-1H-indol-7-yl)-1-oxoisoindolin-4-yl)pyrrolidine-2-carboxamide], which IC50 is on record?
Its IC50 is under 10 nM.

How did the IC50 turn out when Cc1cnc(Nc2cc(C)n(C)n2)nc1-c1c[nH]c2c(N3Cc4c(NC(=O)C5(C)CCCNC5)cccc4C3=O)cccc12 (stereo not shown) [Example 332, N-(2-(3-(2-((1,5-dimethyl-1H-pyrazol-3-yl)amino)-5-methylpyrimidin-4-yl)-1H-indol-7-yl)-1-oxoisoindolin-4-yl)-3-methylpiperidine-3-carboxamide] was run?
Its IC50 is under 10 nM.

Which IC50 does the source give for Cc1cnc(Nc2cc(C)n(C)n2)nc1-c1c[nH]c2c(N3Cc4c(NC(=O)[C@@H]5CCN(C)C5)cccc4C3=O)cccc12 [Example 333, (R)-N-(2-(3-(2-((1,5-dimethyl-1H-pyrazol-3-yl)amino)-5-methylpyrimidin-4-yl)-1H-indol-7-yl)-1-oxoisoindolin-4-yl)-1-methylpyrrolidine-3-carboxamide] here?
Its IC50 is under 10 nM.

Cc1cncc(C(=O)Nc2cccc3c2CN(c2cccc4c(-c5nc(Nc6cc(C)n(C)n6)ncc5C)c[nH]c24)C3=O)c1 [Example 334, N-(2-(3-(2-((1,5-dimethyl-1H-pyrazol-3-yl)amino)-5-methylpyrimidin-4-yl)-1H-indol-7-yl)-1-oxoisoindolin-4-yl)-5-methylnicotinamide] was tested. Which IC50 did it give?
Its IC50 is 10 to 100 nM.

Which IC50 does the source give for Cc1cnc(Nc2cc(C)n(C)n2)nc1-c1c[nH]c2c(N3Cc4c(NC(=O)CN(C)C)cccc4C3=O)cccc12 [Example 335, N-(2-(3-(2-((1,5-dimethyl-1H-pyrazol-3-yl)amino)-5-methylpyrimidin-4-yl)-1H-indol-7-yl)-1-oxoisoindolin-4-yl)-2-(dimethylamino)acetamide] here?
Its IC50 is under 10 nM.

From patent US20240025884A1 (Dong-A ST Co., Ltd., priority 2022, published 2024)
